Assay results from US20190053489A1, “ANTIMICROBIAL COMPOSITION” (NATIONAL UNIVERSITY CORPORATION TOKYO MEDICAL AND DENTAL …, priority 2016, published 2019).

Tested on: Pseudomonas aeruginosa NBRC 13275
Assay: Proliferation suppression against pseudomonas aeruginosa NBRC 13275 in a standard medium (colony count method)
Format: cell-based
Conditions: standard TSB medium; for ratio of the number of pseudomonas aeruginosa (NBRC 13275) colonies produced to the control: 6 hours later, FIG. 11
Text: This test employed Pseudomonas aeruginosa NBRC 13275 or PAO 1, and other procedures were the same as those of [Example 5] described earlier.
Note that the results of FIG. 9 are each the average value of the values obtained by carrying out the colony count method three times and that the results of FIG. 10 are each the average value of the values obtained by carrying out the colony count method five times.
Note that the results of FIG. 11 are each the average value obtained with three replicate samples.

## lysozyme-chitosan complex: complex of lysozyme and water-soluble chitosan (molecular weight 14000 Da) bound to each other through the Maillard reaction
Colony count 6 hours later, complex 0.2%, others 0.1%, FIG. 9
  proliferation suppression effect against NBRC 13275: marked improvement effect compared to lysozyme alone, chitosan alone, and the mixture of lysozyme and chitosan
Complex 0.2%
  ratio of the number of pseudomonas aeruginosa (NBRC 13275) colonies produced to the control: ~0%
Complex 0.5%
  ratio of the number of pseudomonas aeruginosa (NBRC 13275) colonies produced to the control: ~0%
